Laboratory results reported in article PMC8800111 (The Journal of Biological Chemistry, 2021).

Key:
Assay type in all cases: cell-based
[1] = molecular target: proteins of U3A human fibrosarcoma cells (4462 proteins detected) (Homo sapiens, UniProt Q09161); settings: protein NCBP1; soluble abundance after heat, U3A cells
[2] = molecular target: proteins of U3A human fibrosarcoma cells (4462 proteins detected) (Homo sapiens, UniProt Q9UMS4); settings: protein PRPF19; U3A cells
[3] = molecular target: proteins of U3A human fibrosarcoma cells (4462 proteins detected) (Homo sapiens, UniProt Q9HAT2); settings: protein SIAE; U3A, 10 μM, 2 h
[4] = molecular target: proteins of U3A human fibrosarcoma cells (4462 proteins detected) (Homo sapiens, UniProt Q9Y5J1); settings: protein UTP18; U3A cells
[5] = molecular target: proteins of U3A human fibrosarcoma cells (4462 proteins detected) (Homo sapiens, UniProt O00629); settings: protein KPNA4; U3A cells
[6] = molecular target: proteins of U3A human fibrosarcoma cells (4462 proteins detected) (Homo sapiens, UniProt Q9P032); settings: protein NDUFAF4; U3A cells
[7] = molecular target: proteins of U3A human fibrosarcoma cells (4462 proteins detected) (Homo sapiens, UniProt Q9NPD8); settings: protein UBE2T; soluble abundance after heat, U3A cells
[8] = molecular target: proteins of U3A human fibrosarcoma cells (4462 proteins detected) (Homo sapiens, UniProt Q12933); settings: protein TRAF2; U3A cells
[9] = molecular target: proteins of U3A human fibrosarcoma cells (4462 proteins detected) (Homo sapiens, UniProt Q6UWP8); settings: protein SBSN, U3A cells
Sequence of proteins of U3A human fibrosarcoma cells (4462 proteins detected) (Homo sapiens, UniProt Q6UWP8) (Q6UWP8 26-590): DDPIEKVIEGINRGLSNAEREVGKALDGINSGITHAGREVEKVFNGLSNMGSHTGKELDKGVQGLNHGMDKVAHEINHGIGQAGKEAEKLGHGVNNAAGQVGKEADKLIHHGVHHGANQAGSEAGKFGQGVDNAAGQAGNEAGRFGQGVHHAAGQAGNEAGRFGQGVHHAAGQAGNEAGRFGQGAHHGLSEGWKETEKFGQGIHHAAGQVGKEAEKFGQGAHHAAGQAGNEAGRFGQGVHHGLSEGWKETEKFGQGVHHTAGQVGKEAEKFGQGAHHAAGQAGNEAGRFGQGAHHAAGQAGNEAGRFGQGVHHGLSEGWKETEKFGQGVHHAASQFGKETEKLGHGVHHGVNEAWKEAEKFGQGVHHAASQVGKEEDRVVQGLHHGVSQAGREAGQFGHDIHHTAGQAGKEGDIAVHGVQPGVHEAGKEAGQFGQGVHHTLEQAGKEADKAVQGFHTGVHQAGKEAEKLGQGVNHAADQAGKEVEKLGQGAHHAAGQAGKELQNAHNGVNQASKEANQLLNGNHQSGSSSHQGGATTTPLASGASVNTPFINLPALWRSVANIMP

[10] = molecular target: proteins of U3A human fibrosarcoma cells (4462 proteins detected) (Homo sapiens, UniProt Q5VW36); settings: protein FOCAD; U3A cells
[11] = molecular target: proteins of U3A human fibrosarcoma cells (4462 proteins detected) (Homo sapiens, UniProt Q8NAV1); settings: protein PRPF38A; U3A cells
Sequence of proteins of U3A human fibrosarcoma cells (4462 proteins detected) (Homo sapiens, UniProt Q8NAV1) (Q8NAV1 whole entry): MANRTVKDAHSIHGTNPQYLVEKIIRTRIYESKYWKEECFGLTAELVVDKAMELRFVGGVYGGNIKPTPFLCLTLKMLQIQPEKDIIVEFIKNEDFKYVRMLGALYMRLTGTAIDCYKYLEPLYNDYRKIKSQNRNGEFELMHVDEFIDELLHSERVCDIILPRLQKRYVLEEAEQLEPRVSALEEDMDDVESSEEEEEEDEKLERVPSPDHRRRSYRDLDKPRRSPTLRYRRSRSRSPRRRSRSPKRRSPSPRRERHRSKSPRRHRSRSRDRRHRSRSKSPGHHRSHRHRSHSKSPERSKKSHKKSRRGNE

[12] = molecular target: proteins of U3A human fibrosarcoma cells (4462 proteins detected) (Homo sapiens, UniProt P26038); settings: protein MSN, U3A cells
[13] = molecular target: proteins of U3A human fibrosarcoma cells (4462 proteins detected) (Homo sapiens, UniProt O00622); settings: protein CYR61; U3A cells
[14] = molecular target: proteins of U3A human fibrosarcoma cells (4462 proteins detected) (Homo sapiens, UniProt Q9UJ68); settings: protein MSRA, U3A cells
[15] = molecular target: proteins of U3A human fibrosarcoma cells (4462 proteins detected) (Homo sapiens, UniProt P55769); settings: protein NHP2L1; soluble abundance after heat, U3A cells
Sequence of proteins of U3A human fibrosarcoma cells (4462 proteins detected) (Homo sapiens, UniProt P55769) (P55769 whole entry): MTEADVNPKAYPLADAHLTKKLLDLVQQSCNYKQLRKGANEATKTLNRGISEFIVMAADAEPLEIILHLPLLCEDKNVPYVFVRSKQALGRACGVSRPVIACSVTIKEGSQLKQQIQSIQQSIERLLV

[16] = molecular target: proteins of U3A human fibrosarcoma cells (4462 proteins detected) (Homo sapiens, UniProt Q8NCA5); settings: protein FAM98A; U3A cells
Sequence of proteins of U3A human fibrosarcoma cells (4462 proteins detected) (Homo sapiens, UniProt Q8NCA5) (Q8NCA5 whole entry): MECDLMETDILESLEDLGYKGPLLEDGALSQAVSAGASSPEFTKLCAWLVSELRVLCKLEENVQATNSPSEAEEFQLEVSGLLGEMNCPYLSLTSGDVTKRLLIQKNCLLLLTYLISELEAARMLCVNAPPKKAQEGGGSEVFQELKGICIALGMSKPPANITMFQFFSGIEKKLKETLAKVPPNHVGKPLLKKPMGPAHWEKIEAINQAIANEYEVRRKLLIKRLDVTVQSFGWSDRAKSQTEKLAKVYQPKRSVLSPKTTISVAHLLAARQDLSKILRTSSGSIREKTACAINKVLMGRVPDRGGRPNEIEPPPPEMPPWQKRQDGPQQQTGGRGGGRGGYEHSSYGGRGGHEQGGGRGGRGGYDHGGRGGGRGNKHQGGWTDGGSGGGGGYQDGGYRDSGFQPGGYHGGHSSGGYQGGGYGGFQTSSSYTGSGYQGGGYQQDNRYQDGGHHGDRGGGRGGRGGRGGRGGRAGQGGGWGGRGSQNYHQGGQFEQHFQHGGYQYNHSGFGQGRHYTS

[17] = molecular target: proteins of U3A human fibrosarcoma cells (4462 proteins detected) (Homo sapiens, UniProt P78347); settings: protein GTF2I; U3A cells
[18] = molecular target: proteins of U3A human fibrosarcoma cells (4462 proteins detected) (Homo sapiens, UniProt P35244); settings: protein RPA3; soluble abundance after heat, U3A cells
Sequence of proteins of U3A human fibrosarcoma cells (4462 proteins detected) (Homo sapiens, UniProt P35244) (P35244 whole entry): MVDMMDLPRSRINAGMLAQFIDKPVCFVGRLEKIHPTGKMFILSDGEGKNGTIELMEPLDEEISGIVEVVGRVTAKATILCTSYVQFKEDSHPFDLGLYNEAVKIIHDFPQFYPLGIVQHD

[19] = molecular target: proteins of U3A human fibrosarcoma cells (4462 proteins detected) (Homo sapiens, UniProt Q13330); settings: protein MTA1; U3A cells
Sequence of proteins of U3A human fibrosarcoma cells (4462 proteins detected) (Homo sapiens, UniProt Q13330) (Q13330 whole entry): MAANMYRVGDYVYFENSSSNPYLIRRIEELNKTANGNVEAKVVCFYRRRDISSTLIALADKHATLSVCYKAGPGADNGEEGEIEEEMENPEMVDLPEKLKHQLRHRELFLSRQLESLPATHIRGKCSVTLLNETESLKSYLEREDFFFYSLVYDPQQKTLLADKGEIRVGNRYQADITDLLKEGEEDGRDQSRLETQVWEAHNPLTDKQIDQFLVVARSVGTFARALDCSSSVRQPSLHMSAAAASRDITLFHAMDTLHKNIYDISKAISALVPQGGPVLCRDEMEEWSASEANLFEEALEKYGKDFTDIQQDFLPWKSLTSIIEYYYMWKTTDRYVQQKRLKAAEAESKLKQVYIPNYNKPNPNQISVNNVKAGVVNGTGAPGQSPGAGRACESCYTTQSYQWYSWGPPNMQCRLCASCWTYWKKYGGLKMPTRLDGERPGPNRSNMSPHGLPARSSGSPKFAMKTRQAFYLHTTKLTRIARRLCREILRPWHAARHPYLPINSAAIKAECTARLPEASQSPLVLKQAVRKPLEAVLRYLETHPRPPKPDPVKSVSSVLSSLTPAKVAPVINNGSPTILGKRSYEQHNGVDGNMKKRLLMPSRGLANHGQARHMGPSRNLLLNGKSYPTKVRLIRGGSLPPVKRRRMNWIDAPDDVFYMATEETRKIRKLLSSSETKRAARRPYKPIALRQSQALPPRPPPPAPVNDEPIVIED

[20] = molecular target: proteins of U3A human fibrosarcoma cells (4462 proteins detected) (Homo sapiens, UniProt O94915); settings: protein FRYL; U3A, 10 μM, 2 h
[21] = molecular target: proteins of U3A human fibrosarcoma cells (4462 proteins detected) (Homo sapiens, UniProt Q9NVZ3); settings: protein NECAP2; U3A cells
Sequence of proteins of U3A human fibrosarcoma cells (4462 proteins detected) (Homo sapiens, UniProt Q9NVZ3) (Q9NVZ3 whole entry): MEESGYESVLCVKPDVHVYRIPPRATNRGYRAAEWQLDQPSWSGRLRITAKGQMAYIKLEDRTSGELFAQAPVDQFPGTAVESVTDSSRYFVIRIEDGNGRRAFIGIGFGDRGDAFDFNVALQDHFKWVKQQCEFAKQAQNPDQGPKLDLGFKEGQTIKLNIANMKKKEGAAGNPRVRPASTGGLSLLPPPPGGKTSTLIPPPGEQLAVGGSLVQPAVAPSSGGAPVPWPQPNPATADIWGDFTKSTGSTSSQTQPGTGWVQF

[22] = molecular target: proteins of U3A human fibrosarcoma cells (4462 proteins detected) (Homo sapiens, UniProt Q7L2H7); settings: protein EIF3M; U3A cells
Sequence of proteins of U3A human fibrosarcoma cells (4462 proteins detected) (Homo sapiens, UniProt Q7L2H7) (Q7L2H7 whole entry): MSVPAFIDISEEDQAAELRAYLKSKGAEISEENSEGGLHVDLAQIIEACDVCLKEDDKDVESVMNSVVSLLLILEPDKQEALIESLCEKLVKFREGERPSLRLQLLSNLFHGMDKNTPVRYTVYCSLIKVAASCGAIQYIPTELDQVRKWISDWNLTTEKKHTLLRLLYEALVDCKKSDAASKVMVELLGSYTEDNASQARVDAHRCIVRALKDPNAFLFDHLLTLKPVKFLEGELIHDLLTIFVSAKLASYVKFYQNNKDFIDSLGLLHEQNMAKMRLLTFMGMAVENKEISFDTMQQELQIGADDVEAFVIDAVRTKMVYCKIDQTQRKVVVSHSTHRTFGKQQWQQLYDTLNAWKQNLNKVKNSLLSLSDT

[23] = molecular target: proteins of U3A human fibrosarcoma cells (4462 proteins detected) (Homo sapiens, UniProt Q6AI12); settings: protein ANKRD40, U3A cells
Sequence of proteins of U3A human fibrosarcoma cells (4462 proteins detected) (Homo sapiens, UniProt Q6AI12) (Q6AI12 whole entry): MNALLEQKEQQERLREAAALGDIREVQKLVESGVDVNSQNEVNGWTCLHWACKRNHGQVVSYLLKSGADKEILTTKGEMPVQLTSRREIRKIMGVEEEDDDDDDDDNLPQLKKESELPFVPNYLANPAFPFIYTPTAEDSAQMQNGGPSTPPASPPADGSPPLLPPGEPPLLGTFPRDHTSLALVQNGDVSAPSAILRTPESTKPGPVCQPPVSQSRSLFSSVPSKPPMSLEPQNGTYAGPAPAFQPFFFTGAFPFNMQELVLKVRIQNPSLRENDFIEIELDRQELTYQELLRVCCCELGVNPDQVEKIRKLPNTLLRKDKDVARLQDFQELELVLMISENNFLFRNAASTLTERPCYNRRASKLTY

[24] = molecular target: proteins of U3A human fibrosarcoma cells (4462 proteins detected) (Homo sapiens, UniProt P15927); settings: protein RPA2; U3A cells
Sequence of proteins of U3A human fibrosarcoma cells (4462 proteins detected) (Homo sapiens, UniProt P15927) (P15927 whole entry): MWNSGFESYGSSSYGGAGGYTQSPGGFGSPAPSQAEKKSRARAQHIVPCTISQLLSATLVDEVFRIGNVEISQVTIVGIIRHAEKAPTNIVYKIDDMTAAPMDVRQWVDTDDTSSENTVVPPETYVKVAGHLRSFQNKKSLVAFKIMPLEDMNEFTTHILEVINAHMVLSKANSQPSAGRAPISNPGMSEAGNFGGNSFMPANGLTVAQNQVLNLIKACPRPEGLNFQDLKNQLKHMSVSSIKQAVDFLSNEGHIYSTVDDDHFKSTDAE

[25] = molecular target: proteins of U3A human fibrosarcoma cells (4462 proteins detected) (Homo sapiens, UniProt Q9H871); settings: protein RMND5A; U3A cells
Sequence of proteins of U3A human fibrosarcoma cells (4462 proteins detected) (Homo sapiens, UniProt Q9H871) (Q9H871 whole entry): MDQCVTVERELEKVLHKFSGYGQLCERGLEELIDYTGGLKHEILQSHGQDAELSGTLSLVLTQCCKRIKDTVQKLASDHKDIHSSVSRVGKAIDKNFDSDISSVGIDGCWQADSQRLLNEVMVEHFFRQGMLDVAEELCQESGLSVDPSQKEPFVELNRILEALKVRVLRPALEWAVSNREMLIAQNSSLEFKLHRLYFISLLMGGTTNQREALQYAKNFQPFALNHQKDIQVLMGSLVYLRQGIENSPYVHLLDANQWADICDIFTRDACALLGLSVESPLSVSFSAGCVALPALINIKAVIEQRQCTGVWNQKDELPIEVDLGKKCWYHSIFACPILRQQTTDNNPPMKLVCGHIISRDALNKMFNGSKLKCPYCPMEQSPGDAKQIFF

[26] = molecular target: proteins of U3A human fibrosarcoma cells (4462 proteins detected) (Homo sapiens, UniProt Q96AT1); settings: protein KIAA1143; U3A, 10 μM, 2 h
Sequence of proteins of U3A human fibrosarcoma cells (4462 proteins detected) (Homo sapiens, UniProt Q96AT1) (Q96AT1 whole entry): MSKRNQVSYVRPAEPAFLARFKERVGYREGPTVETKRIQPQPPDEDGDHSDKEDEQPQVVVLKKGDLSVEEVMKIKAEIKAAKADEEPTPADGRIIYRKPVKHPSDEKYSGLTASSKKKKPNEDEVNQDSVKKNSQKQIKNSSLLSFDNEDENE

[27] = molecular target: proteins of U3A human fibrosarcoma cells (4462 proteins detected) (Homo sapiens, UniProt P61289); settings: protein PSME3; U3A cells
Sequence of proteins of U3A human fibrosarcoma cells (4462 proteins detected) (Homo sapiens, UniProt P61289) (P61289 whole entry): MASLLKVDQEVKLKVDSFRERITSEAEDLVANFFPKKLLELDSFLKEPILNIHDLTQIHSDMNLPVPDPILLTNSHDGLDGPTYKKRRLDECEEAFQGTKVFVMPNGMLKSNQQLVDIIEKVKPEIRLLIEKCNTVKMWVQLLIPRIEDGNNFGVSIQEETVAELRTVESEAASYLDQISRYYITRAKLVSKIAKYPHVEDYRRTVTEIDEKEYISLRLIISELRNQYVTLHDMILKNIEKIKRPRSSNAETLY

[28] = molecular target: proteins of U3A human fibrosarcoma cells (4462 proteins detected) (Homo sapiens, UniProt Q9UQ80); settings: protein PA2G4, U3A cells
Sequence of proteins of U3A human fibrosarcoma cells (4462 proteins detected) (Homo sapiens, UniProt Q9UQ80) (Q9UQ80 whole entry): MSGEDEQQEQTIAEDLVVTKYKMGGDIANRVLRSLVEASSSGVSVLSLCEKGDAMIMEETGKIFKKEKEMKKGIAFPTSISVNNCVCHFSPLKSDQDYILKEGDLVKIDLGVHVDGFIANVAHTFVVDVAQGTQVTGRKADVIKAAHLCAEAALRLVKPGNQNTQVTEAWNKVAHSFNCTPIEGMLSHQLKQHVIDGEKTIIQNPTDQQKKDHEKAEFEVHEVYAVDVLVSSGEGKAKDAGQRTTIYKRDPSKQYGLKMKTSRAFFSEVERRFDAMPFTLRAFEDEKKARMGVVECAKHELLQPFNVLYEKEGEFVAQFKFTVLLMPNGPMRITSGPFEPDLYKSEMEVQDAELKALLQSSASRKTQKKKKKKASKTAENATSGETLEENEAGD

[29] = molecular target: proteins of U3A human fibrosarcoma cells (4462 proteins detected) (Homo sapiens, UniProt O94880); settings: protein PHF14; U3A, 10 μM, 2 h
[30] = molecular target: proteins of U3A human fibrosarcoma cells (4462 proteins detected) (Homo sapiens, UniProt O95197); settings: protein RTN3; U3A cells

CCc1nc(N)nc(N)c1-c1ccc(Cl)cc1 [pyrimethamine]
Log2 (PYR/DMSO) [1]: 0.14
Log2 (PYR/DMSO) [2]: 0.17
Log2 (PYR/DMSO), SIAE [3]: 0.34
Log2 (PYR/DMSO) [4]: 0.21
Log2 (PYR/DMSO) [5]: 0.22
Log2 (PYR/DMSO) [6]: 0.17
Log2 (PYR/DMSO) [7]: 0.13
Log2 (PYR/DMSO) [8]: 0.16
Log2 (PYR/DMSO) [9]: -0.05
Log2 (PYR/DMSO) [10]: 0.20
Log2 (PYR/DMSO) [11]: 0.16
Log2 (PYR/DMSO) [12]: -0.04
Log2 (PYR/DMSO) [13]: 0.21
Log2 (PYR/DMSO) [14]: -0.04
Log2 (PYR/DMSO) [15]: 0.14
Log2 (PYR/DMSO) [16]: 0.24
Log2 (PYR/DMSO) [17]: 0.23
Log2 (PYR/DMSO) [18]: 0.13
Log2 (PYR/DMSO) [19]: 0.16
Log2 (PYR/DMSO), FRYL [20]: 0.28
Log2 (PYR/DMSO) [21]: 0.21
Log2 (PYR/DMSO) [22]: 0.18
Log2 (PYR/DMSO) [23]: -0.04
Log2 (PYR/DMSO) [24]: 0.17
Log2 (PYR/DMSO) [25]: 0.21
Log2 (PYR/DMSO), KIAA1143 [26]: -0.16
Log2 (PYR/DMSO) [27]: 0.17
Log2 (PYR/DMSO) [28]: -0.03
Log2 (PYR/DMSO), PHF14 [29]: -0.15
Log2 (PYR/DMSO) [30]: 0.16
